According to patent US20230138851A1, “NOVEL ALKYNE DERIVATIVES” (CARNA BIOSCIENCES, INC., priority 2020, published 2023):

How the values were obtained:
Format in all cases: biochemical
DYRK1A = target: T1, DYRK1A (Homo sapiens, UniProt Q13627); assay: Inhibition test on activity of DYRK family, mobility shift assay (MSA), DYRK1A; conditions: ATP 100 μM, FITC-labeled DYRKtide peptide substrate, room temperature 1 hour; for IC50: read-out: Inhibitory Activity 1a (IC50 against DYRK1A)
T1 construct: purchased Carna Biosciences, Inc. 04-130
Experimental: (§1) [Inhibition Test on Activity of DYRK Family (DYRK1A, DYRK1B, DYRK2, and […])]
(§2) (Method for Measuring Kinase Activity)
(§3) The kinase activity was measured by mobility shift assay (MSA) method using QuickScout Screening Assist™ MSA (commercially available kit manufactured by Carna Biosciences, Inc.). The substrate of the kinase reaction used was an FITC-labeled DYRKtide peptide included in the kit. An assay buffer [20 mM HEPES, 0.01% Triton X-100™, 2 mM dithiothreitol, pH 7.5] was used to create a substrate mixture solution with a substrate (4 μM), MgCl2 (20 mM), and ATP (DYRK1A: 100 μM; DYRK1B: 200 μM; DYRK2: 40 μM; and DYRK3: 20 μM). In addition, kinases (DYRK1A: manufactured by Carna Biosciences, Inc., Cat. No. 04-130; DYRK1B: manufactured by Carna Biosciences, Inc., Cat. No. 04-131; DYRK2; manufactured by Carna Biosciences, Inc., Cat. No. 04-132; and DYRK3; manufactured by Carna Biosciences, Inc., Cat. No. 04-133) were diluted with the assay buffer to prepare enzyme solutions (DYRK1A: 0.2 ng/μL; DYRK1B: 0.08 ng/μL; DYRK2: 0.04 ng/μL; and DYRK3: 0.25 ng/μL). The 10 mM solution of the test compound in DMSO was further diluted with DMSO to 10 levels of the concentration (0.00003 mM, 0.0001 mM, 0.0003 mM, 0.001 mM, 0.003 mM, 0.01 mM, 0.03 mM, 0.1 mM, 0.3 mM, and 1 mM), each of which was subjected to 25-fold dilution with the assay buffer to obtain a drug solution (4% DMSO solution). 5 μL of the drug solution or a control solution (4% DMSO-assay buffer), 5 μL of the substrate mixture solution, and 10 μL of the enzyme solution were mixed in the wells of a polypropylene 384-well plate and allowed to react at room temperature for 1 hour, and then the reaction was quenched by adding 60 μL of the termination buffer included in the kit. Subsequently, the quantities of the substrates (S) and the phosphorylated substrate (P) in the reaction solution were measured using LabChip EZ Reader II system (manufactured by Caliper Life Sciences) according to the protocol of the assay kit.
(§4) (Method for Evaluating Inhibitory Activity)
(§5) The heights of the peaks of the “substrate” and the “phosphorylated substrate” were expressed as S and P, respectively, and a blank containing the assay buffer instead of the enzyme solution was also measured.
(§6) The inhibition rate (%) of the test compound was calculated according to the following equation:
(§7) Inhibition rate (%)=(1−(C−A)/(B−A))×100
(§8) wherein, A, B, and C represent P/(P+S) of the blank well, P/(P+S) of the control solution well, and P/(P+S) of the compound-containing well, respectively.
(§9) The IC50 value was calculated via a regression analysis of the inhibition rate and the test compound concentration (logarithmic value).
(§10) The inhibiting activities of representative compounds of the present invention are shown against DYRK1A, DYRK1B, DYRK2, and DYRK3 in Tables 7 and 8. The kinase activity inhibitory effect was indicated with the mark *** at an IC50 value of less than 0.01 μM; the mark ** at 0.01 μM or more and less than 0.1 μM; the mark * at 0.1 μM or more and less than 1 μM; and the mark — at 1 μM or more (N.D. indicates not measured).

DYRK2 = target: T2, DYRK2 (Homo sapiens, UniProt Q92630); assay: Inhibition test on activity of DYRK family, mobility shift assay (MSA), DYRK2; conditions: ATP 40 μM, FITC-labeled DYRKtide peptide substrate, room temperature 1 hour; for IC50: read-out: Inhibitory Activity 2 (IC50 against DYRK2)
T2 construct: purchased Carna Biosciences, Inc. 04-132
T2 sequence (Q92630 1-601): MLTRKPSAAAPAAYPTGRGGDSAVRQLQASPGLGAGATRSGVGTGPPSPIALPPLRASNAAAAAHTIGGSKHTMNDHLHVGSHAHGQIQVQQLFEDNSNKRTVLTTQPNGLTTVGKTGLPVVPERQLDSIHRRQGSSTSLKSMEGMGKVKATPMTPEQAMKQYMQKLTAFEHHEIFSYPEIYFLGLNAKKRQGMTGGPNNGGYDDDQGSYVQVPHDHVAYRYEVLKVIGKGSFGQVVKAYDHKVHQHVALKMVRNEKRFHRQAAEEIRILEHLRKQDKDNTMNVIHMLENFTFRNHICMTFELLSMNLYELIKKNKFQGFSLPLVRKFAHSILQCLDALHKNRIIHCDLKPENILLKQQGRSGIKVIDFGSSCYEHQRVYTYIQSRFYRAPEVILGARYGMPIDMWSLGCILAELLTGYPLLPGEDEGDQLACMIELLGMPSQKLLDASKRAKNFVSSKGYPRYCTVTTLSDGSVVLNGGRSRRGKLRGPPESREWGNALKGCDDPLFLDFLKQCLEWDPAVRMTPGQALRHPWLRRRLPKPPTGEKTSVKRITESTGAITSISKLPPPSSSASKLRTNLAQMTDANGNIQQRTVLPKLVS
Experimental: as §1, §2, §3, §4, §5, §6, §7, §8, §9, §10

DYRK3 = target: T3, DYRK3 (Homo sapiens, UniProt O43781); assay: Inhibition test on activity of DYRK family, mobility shift assay (MSA), DYRK3; conditions: ATP 20 μM, FITC-labeled DYRKtide peptide substrate, room temperature 1 hour; for IC50: read-out: Inhibitory Activity 3 (IC50 against DYRK3)
T3 construct: purchased Carna Biosciences, Inc. 04-133
T3 sequence (O43781 1-588): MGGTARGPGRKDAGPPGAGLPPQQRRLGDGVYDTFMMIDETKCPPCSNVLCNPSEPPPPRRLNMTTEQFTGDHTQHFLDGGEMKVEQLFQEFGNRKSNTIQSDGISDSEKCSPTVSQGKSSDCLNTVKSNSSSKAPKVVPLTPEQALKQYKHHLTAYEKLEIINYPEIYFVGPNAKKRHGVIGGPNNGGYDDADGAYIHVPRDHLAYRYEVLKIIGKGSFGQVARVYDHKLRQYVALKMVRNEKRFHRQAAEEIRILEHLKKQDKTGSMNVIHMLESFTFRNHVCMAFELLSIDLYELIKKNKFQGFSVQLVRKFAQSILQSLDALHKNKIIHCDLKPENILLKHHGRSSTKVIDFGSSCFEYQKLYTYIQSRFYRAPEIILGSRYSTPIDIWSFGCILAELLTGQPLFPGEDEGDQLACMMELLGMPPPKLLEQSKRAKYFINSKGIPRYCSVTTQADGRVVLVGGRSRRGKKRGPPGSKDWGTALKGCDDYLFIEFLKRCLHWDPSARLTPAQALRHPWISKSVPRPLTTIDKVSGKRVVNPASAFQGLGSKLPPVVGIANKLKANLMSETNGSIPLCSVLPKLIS
Experimental: as §1, §2, §3, §4, §5, §6, §7, §8, §9, §10

| Compound | Inhibitory Activity 1a (IC50 against DYRK1A) (DYRK1A) | IC50 (DYRK2) [nM] | IC50 (DYRK3) [nM] | IC50 (DYRK1A) [nM] | Inhibitory Activity 2 (IC50 against DYRK2) (DYRK2) | Inhibitory Activity 3 (IC50 against DYRK3) (DYRK3) |
| --- | --- | --- | --- | --- | --- | --- |
| CC#CC1N(c2nc3c4c(ccc3s2)OCC4)C(=O)NC1(C)C (racemic) [Example 54, (RS)-1-(7,8-dihydrobenzofuro[4,5-d]thiazol-2-yl)-4,4-dimethyl-5-(prop-1-yn-1-yl)imidazolidin-2-one] | * * | ≥ 1000 | ≥ 1000 |  |  |  |
| CC#C[C@@H]1[C@H](C)NC(=O)N1c1nc2c3c(ccc2s1)OCCC3 [Example 57, (4S,5R)-1-(8,9-dihydro-7H-chromeno[5,6-d]thiazol-2-yl)-4-methyl-5-(prop-1-yn-1-yl)imidazolidin-2-one] | * * * | 100 to 1000 | 100 to 1000 |  |  |  |
| O=C1NCC(C#CC2CC2)N1c1nc2c3c(ccc2s1)OCC3 (racemic) [Example 21, (RS)-5-(cyclopropylethynyl)-1-(7,8-dihydrobenzofuro[4,5-d]thiazol-2-yl)imidazolidin-2-one] | * * * | ≥ 1000 | 100 to 1000 |  |  |  |
| CC#C[C@@H]1[C@H](COC)NC(=O)N1c1nc2c3c(ccc2s1)OCC3 (single isomer, unassigned) [Example 75, cis-1-(7,8-dihydrobenzofuro[4,5-d]thiazol-2-yl)-4-(methoxymethyl)-5-(prop-1-yn-1-yl)imidazolidin-2-one] |  | ≥ 1000 | ≥ 1000 | 100 to 1000 |  |  |
| CC#CC1CNC(=O)N1c1nc2c(ccc3ocnc32)s1 (racemic) [Example 7, (RS)-5-(prop-1-yn-1-yl)-1-(thiazolo[5′,4′:5,6]benzo[1,2-d]oxazole-7-yl)imidazolidin-2-one] | * * * | ≥ 1000 | ≥ 1000 |  |  |  |
| CC#C[C@H]1[C@H]([C@@H](C)O)NC(=O)N1c1nc2c3c(ccc2s1)OCC3 [Example 81, (4R,5S)-1-(7,8-dihydrobenzofuro[4,5-d]thiazol-2-yl)-4-((R)-1-hydroxyethyl)-5-(prop-1-yn-1-yl)imidazolidin-2-one] |  | ≥ 1000 | ≥ 1000 | 100 to 1000 |  |  |
| CC#C[C@H]1[C@H](CN(C)C)NC(=O)N1c1nc2c3c(ccc2s1)OCC3 (single isomer, unassigned) [Example 69, trans-1-(7,8-dihydrobenzofuro[4,5-d]thiazol-2-yl)-4-[(dimethylamino)methyl]-5-(prop-1-yn-1-yl)imidazolidin-2-one] | * * | ≥ 1000 | 100 to 1000 |  |  |  |
| CC#C[C@H]1[C@H](CO)NC(=O)N1c1nc2c3c(ccc2s1)OCCO3 (single isomer, unassigned) [Example 66, trans-1-(7,8-dihydro-[1,4]dioxino[2′,3′:5,6]benz[1,2-d]thiazol-2-yl)-4-(hydroxymethyl)-5-(prop-1-yn-1-yl)imidazolidin-2-one] |  | ≥ 1000 | ≥ 1000 | 100 to 1000 |  |  |
| CC#C[C@H]1[C@H](C(C)C)NC(=O)N1c1nc2c3c(ccc2s1)OCC3 [Example 67, (4S,5S)-1-(7,8-dihydrobenzofuro[4,5-d]thiazol-2-yl)-4-isopropyl-5-(prop-1-yn-1-yl)imidazolidin-2-one] |  | ≥ 1000 | ≥ 1000 | ≥ 1000 |  |  |
| COCC#CC1CNC(=O)N1c1nc2c3c(ccc2s1)OCC3 (racemic) [Example 20, (RS)-1-(7,8-dihydrobenzofuro[4,5-d]thiazol-2-yl)-5-(3-methoxyprop-1-yn-1-yl)imidazolidin-2-one] |  | ≥ 1000 | ≥ 1000 | 100 to 1000 |  |  |

Next, values leading:

| Inhibitory Activity 1a (IC50 against DYRK1A) (DYRK1A) | IC50 (DYRK2) [nM] | IC50 (DYRK3) [nM] | IC50 (DYRK1A) [nM] | Inhibitory Activity 2 (IC50 against DYRK2) (DYRK2) | Inhibitory Activity 3 (IC50 against DYRK3) (DYRK3) | Compound |
| --- | --- | --- | --- | --- | --- | --- |
| * * | ≥ 1000 | ≥ 1000 |  |  |  | CC#CC1CNC(=O)N1c1nc2c(ccc3[nH]ncc32)s1 (racemic) [Example 50, (RS)-5-(prop-1-yn-1-yl)-1-(6H-thiazolo[4,5-e]indazol-2-yl)imidazolidin-2-one] |
| * * * |  |  |  | * * | * * | C#CC1CNC(=O)N1c1nc2c3c(ccc2s1)OCC3 (racemic) [Example 12, (RS)-1-(7,8-dihydrobenzofuro[4,5-d]thiazol-2-yl)-5-ethynylimidazolidin-2-on] |
|  | ≥ 1000 | ≥ 1000 | 100 to 1000 |  |  | CC#C[C@H]1[C@H](CF)NC(=O)N1c1nc2c3c(ccc2s1)OCC3 (single isomer, unassigned) [Example 79, trans-1-(7,8-dihydrobenzofuro[4,5-d]thiazol-2-yl)-4-(fluoromethyl)-5-(prop-1-yn-1-yl)imidazolidin-2-one] |
| * * | ≥ 1000 | ≥ 1000 |  |  |  | CC#C[C@H]1[C@H](COC)NC(=O)N1c1nc2c3c(ccc2s1)OCC3 (single isomer, unassigned) [Example 76, trans-1-(7,8-dihydrobenzofuro[4,5-d]thiazol-2-yl)-4-(methoxymethyl)-5-(prop-1-yn-1-yl)imidazolidin-2-one] |
|  | ≥ 1000 | 100 to 1000 | < 10 |  |  | CC#C[C@@H]1[C@H](CF)NC(=O)N1c1nc2c3c(ccc2s1)OCC3 (relative stereo) [Example 80, cis-1-(7,8-dihydrobenzofuro[4,5-d]thiazol-2-yl)-4-(fluoromethyl)-5-(prop-1-yn-1-yl)imidazolidin-2-one] |
